Results: patent US7018642B2 (The Procter & Gamble Company, priority 2001, dated 2006)

What was measured:
Format in all cases: cell-based
[1] = tested on: P. fluorescens strain ATCC 13525; test: Biofilm prevention screen (96-well microplate, crystal violet); details: Pseudomonas fluorescens, positive = prevention, negative = enhancement of biofilm formation, quadruplicate, read-out: average percentage reduction of biofilm formed relative to DMSO controls; for inhibition at 32 µM: ATCC13525, 32 μM; for inhibition at 160 µM: ATCC13525, 160 μM; for inhibition at 390 µM: ATCC13525, 390 μM
Method in brief: (§1)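 Each strain grown in its own modified medium (PAO1: R2A, no Mg^2+, 0.3–0.5% fructose, 3 μM ferrous ammonium sulfate; ATCC 13525: R2A with pyruvate; ATCC 35984: ¼ TSB, 1% fructose). Compounds at three final concentrations (e.g. 250–500, 160, 32 μM), shaken 16–26 h at 30° C. (pseudomonads) or 37° C. (S. epidermidis). Crystal violet A586; % biofilm reduction versus DMSO, quadruplicate means.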

[2] = tested on: P. aeruginosa strain PAO1; test: as above; details: Pseudomonas aeruginosa, positive = prevention, negative = enhancement of biofilm formation, quadruplicate, read-out: average percentage reduction of biofilm formed relative to DMSO controls
Method in brief: as §1

[3] = tested on: S. epidermidis strain ATCC 35984; test: as above; details: Staphylococcus epidermidis, positive = prevention, negative = enhancement of biofilm formation, quadruplicate, read-out: average percentage reduction of biofilm formed relative to DMSO controls; for inhibition at 32 µM: ATCC35984, 32 μM; for inhibition at 160 µM: ATCC35984, 160 μM; for inhibition at 390 µM: ATCC35984, 390 μM
Method in brief: as §1

[4] = tested on: P. fluorescens strain ATCC 13525; test: Improved biofilm dispersion screen (already-formed biofilms, crystal violet); details: Pseudomonas fluorescens, ATCC13525, 20 mM NaOH step, positive = dispersion, negative = enhancement of pre-existing biofilm, quadruplicate, read-out: average percentage reduction of biofilm relative to the two control values (dispersion)
Method in brief: (§2)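 Biofilms pre-grown 24 h without compound, then given fresh medium with compound at 390 μM for another 22–26 h. NaOH wash in PBS (0 mM S. epidermidis, 20 mM P. fluorescens, 30 mM P. aeruginosa; 30 min, room temperature), then crystal violet staining. Percent biofilm reduction calculated against t0 and DMSO t24 controls, quadruplicates; negative values mean enhancement.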

[5] = tested on: P. aeruginosa strain PAO1; test: as above; details: Pseudomonas aeruginosa, 30 mM NaOH step, positive = dispersion, negative = enhancement of pre-existing biofilm, quadruplicate, read-out: average percentage reduction of biofilm relative to the two control values (dispersion)
Method in brief: as §2

[6] = tested on: S. epidermidis strain ATCC 35984; test: as above; details: Staphylococcus epidermidis, ATCC35984, no NaOH, positive = dispersion, negative = enhancement of pre-existing biofilm, quadruplicate, read-out: average percentage reduction of biofilm relative to the two control values (dispersion)
Method in brief: as §2

SMILES	inhibition at 32 µM [1]	inhibition at 160 µM [1]	inhibition at 390 µM [1]	inhibition at 32 µM [2]	inhibition at 160 µM [2]	inhibition at 390 µM [2]	inhibition at 32 µM [3]	inhibition at 160 µM [3]	inhibition at 390 µM [3]	inhibition at 390 µM [4]	inhibition at 390 µM [5]	inhibition at 390 µM [6]
CCCCCCNC(=O)[C@@H]1CCCN1 [Compound 30]	11%	11%	19%	2%	9%	18%	-12%	-7%	-6%	20%	1%	-11%
CCCCNC(=O)[C@@H]1CCCN1C(=O)OC(C)(C)C [Compound 155]	10%	4%	4%	-5%	2%	6%	-3%	-1%	21%	3%	-12%	-4%
CCCCCCCCNC(=O)[C@@H]1CCCCN1C(C)=O [Compound 21]	2%	4%	20%	-6%	-12%	-11%	-15%	-23%	-24%	-16%	-39%	-8%
CCCCCCCCNC(=O)[C@H]1CCCCN1C(C)=O [Compound 24]	-1%	-6%	-2%	-12%	-22%	-11%	-8%	-20%	-53%	0%	-17%	-8%
CCCCCCCCCCCCNC(=O)[C@H]1CCCN1 [Compound 167]	38%	95%	92%	4%	49%	93%	40%	100%	99%	0%	4%	78%
CCCCCCCCCCNC(=O)[C@@H]1CCCN1C(=O)OC(C)(C)C [Compound 12, N-(tert-Butoxycarbonyl)-L-proline n-decyl amide]	-16%	-42%	-37%	6%	-45%	-32%	-21%	-2%	31%	-30%	-30%	0%
CCCCCCCCCCNC(=O)[C@H]1CCCN1C(=O)OC(C)(C)C [Compound 158]	3%	-11%	-40%	1%	-34%	-40%	-10%	52%	54%	-79%	-53%	0%
CCCCCCCCCCNC(=O)[C@H]1CCCN1 [Compound 166]	0%	57%	98%	10%	22%	96%	13%	100%	101%	0%	-2%	70%
CCCCCCCCNC(=O)[C@@H]1CCCN1 [Compound 31]	3%	5%	52%	-37%	-125%	-44%	-7%	-1%	-27%	32%	21%	-11%
CCCCCCCCNC(=O)[C@@H]1CCCCN1 [Compound 20]	-16%	-14%	40%	-16%	-22%	15%	1%	1%	-59%	25%	46%	0%
